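Growth conditions: 96-well plates. Treatment: test compound, 48 hours, 5 concentrations. Analysis: linear interpolation between bracketing concentrations; unreached endpoints set to highest concentration. GI50: concentration for 50% inhibition of growth. TGI: total growth inhibition.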
What was measured:
Experiment in all cases: NCI anticancer screen, dose series, 48 h
HL-60(TB) leukemia = test system: HL-60(TB) leukemia
TK-10 renal = test system: TK-10 renal
SK-OV-3 ovarian = test system: SK-OV-3 ovarian
SN12C renal = test system: SN12C renal
OVCAR-4 ovarian = test system: OVCAR-4 ovarian
OVCAR-5 ovarian = test system: OVCAR-5 ovarian
HOP-62 NSCLC = test system: HOP-62 NSCLC
OVCAR-3 ovarian = test system: OVCAR-3 ovarian
IGROV1 ovarian = test system: IGROV1 ovarian
MDA-MB-435 = test system: MDA-MB-435

Row | Compound | TGI (HL-60(TB) leukemia) [µM] | TGI (TK-10 renal) [µM] | TGI (SK-OV-3 ovarian) [µM] | TGI (SN12C renal) [µM] | TGI (OVCAR-4 ovarian) [µM] | TGI (OVCAR-5 ovarian) [µM] | TGI (HOP-62 NSCLC) [µM] | TGI (OVCAR-3 ovarian) [µM] | TGI (IGROV1 ovarian) [µM] | TGI (MDA-MB-435) [µM] | GI50 (HL-60(TB) leukemia) [µM] | GI50 (OVCAR-5 ovarian) [µM] | GI50 (HOP-62 NSCLC) [µM] | GI50 (TK-10 renal) [µM] | GI50 (SK-OV-3 ovarian) [µM] | GI50 (SN12C renal) [µM] | GI50 (OVCAR-4 ovarian) [µM] | GI50 (IGROV1 ovarian) [µM] | GI50 (OVCAR-3 ovarian) [µM] | GI50 (MDA-MB-435) [µM]
1 | C[Si](C)(C)C(CCCCSc1ccccc1)(Sc1ccccc1)Sc1ccccc1 | > 100 | > 100 | > 100 | > 100 | > 100 |  |  |  |  |  |  |  |  |  |  |  |  |  |  | 
2 | O=C(C#Cc1ccccc1)N1c2ccccc2CC1c1c[nH]c2ccccc12 (configuration not stated) | 36.2 | 44.2 | 51 | 26.9 | 69.6 | 64.4 | 26.9 | 32.1 | 25.3 |  |  |  |  |  |  |  |  |  |  | 
3 | CCc1ccccc1NC(=O)/C=C/c1ccccc1 |  | > 100 | > 100 | > 100 | > 100 | > 100 | > 100 | > 100 |  | > 100 |  |  |  |  |  |  |  |  |  | 
4 | COc1ccc(C(=O)c2cc3c(N)c(C(=O)Nc4ccccc4)sc3nc2C)cc1 | 26.3 | > 100 | > 100 | > 100 | > 100 | > 100 | > 100 |  | > 100 |  | 0.5 | 3.1 | 1.69 | 8.04 | 0.763 | 1.68 | 16.1 | 2.51 |  | 
5 | COc1ccc(OC(C(=O)O)C(C)C)c2c1CCCC2=O (configuration not stated) | > 100 | > 100 | > 100 | > 100 | > 100 | > 100 | > 100 | > 100 | > 100 |  |  |  |  |  |  |  |  |  |  | 
6 | COc1ccc(-c2cc(C(=O)Nc3cc(C(F)(F)F)cc(C(F)(F)F)c3)c3ccccc3n2)cc1 | > 100 | 29.5 |  | 25.1 | > 100 | > 100 | 30.3 | 15.5 | 44.9 |  |  |  |  |  |  |  |  |  |  | 
7 | [O-]c1ccccc1C=Nc1ccc2c(c1)CCC2.[O-]c1ccccc1C=Nc1ccc2c(c1)CCC2.[O]=[U+2]=[O] | > 100 | 82.2 | > 100 | > 100 | > 100 | > 100 | > 100 | > 100 | > 100 |  | 9.43 | > 100 | > 100 | 30.1 | > 100 | > 100 | > 100 | 41 | > 100 | 
8 | O=c1nc(-c2ccccc2)cc(CC(O)c2ccc(Cl)c(Cl)c2)[nH]1 (configuration not stated) | 76 | > 100 | > 100 | > 100 | > 100 | 82 | > 100 | > 100 | > 100 |  |  |  |  |  |  |  |  |  |  | 
9 | O=C1C(=O)N(c2ccc(Cl)cc2)C(=O)C(=O)C1c1nc2ccccc2s1 |  | > 100 | > 100 | > 100 | > 100 | > 100 | > 100 | > 100 | > 100 |  |  |  |  |  |  |  |  |  |  | 
10 | CCCCCCCC(=O)OCCCC1[C@]2(C)CC[C@@]3(C)C([C@H](C)CCC=C(C)C)CC[C@]3(C)C2CC[C@]12OC2(C)C (some centres not stated) | 67.4 | > 100 |  |  | > 100 | > 100 | > 100 | 65.2 | > 100 | > 100 | 28.5 | > 100 | > 100 | 30.6 |  |  | 78.9 | 34.8 | 24.9 | 36.6
11 | O=C1OC(c2ccccc2)=N/C1=C\c1ccc(Oc2ccc(Cl)c(Cl)c2)cc1 | 56.9 | > 100 |  | > 100 |  | > 100 | > 100 |  | > 100 |  |  |  |  |  |  |  |  |  |  | 
12 | COC(=O)CC(C(C(=O)OCc1ccccc1)C(C)O)N1C(=O)OC(c2ccccc2)C1c1ccccc1 (configuration not stated) | > 100 | > 100 |  | > 100 | > 100 |  | > 100 | > 100 | > 100 |  |  |  |  |  |  |  |  |  |  | 
13 | NCCCCC1NC(=O)C(CC(=O)O)NC(=O)CNC(=O)C(CCCN=C(N)N)NC(=O)C(N)CSSCC(C(=O)O)NC(=O)C(CC(=O)O)NC(=O)C2CCCN2C(=O)CNC1=O (configuration not stated) |  | > 100 | > 100 | > 100 | > 100 | > 100 | > 100 | > 100 | > 100 | > 100 |  | > 100 | > 100 | > 100 | > 100 | > 100 | > 100 | > 100 | > 100 | > 100
14 | CCOC(=O)CCC1(C(=O)OCC)CCCC1=O (configuration not stated) | > 100 | > 100 | > 100 | > 100 | > 100 | > 100 | > 100 | > 100 | > 100 |  |  |  |  |  |  |  |  |  |  | 
15 | COC(=O)CCC12CCC(=O)C1[C@@H](C(=O)OC)C[C@H]2C(=O)OC (some centres not stated) | > 100 | > 100 | > 100 | > 100 | > 100 | > 100 | > 100 | > 100 | > 100 |  |  |  |  |  |  |  |  |  |  | 
16 | C#CCNC(=O)NCCCCC(NC(=O)OCc1ccccc1)C(=O)OCc1ccccc1 (configuration not stated) | 35.4 | > 100 | > 100 | > 100 | > 100 | > 100 | > 43 | > 100 | > 100 |  |  |  |  |  |  |  |  |  |  | 
17 | Cn1cccc1-c1cc(-c2ccccc2)[nH]c(=O)c1C#N |  | > 100 | > 100 | > 100 | > 100 | > 100 | > 100 | > 100 | > 100 | > 100 |  | > 100 | > 100 | > 100 | > 100 | > 100 | > 100 | > 100 | > 100 | > 100
18 | O=c1cccccc1NCCCCCCCNc1cccccc1=O | 30 |  | > 100 | > 100 | > 100 | > 100 | > 100 | > 100 | > 100 |  |  |  |  |  |  |  |  |  |  | 
19 | Oc1c(Cl)cc(Cl)c2ccc(Cn3cc(-c4cc(C(F)(F)F)cc(C(F)(F)F)c4)nn3)nc12 |  | 3.83 | 30.1 | 11.8 | 2.75 | 9.23 | 30.7 | 2.56 | 3.47 | 4.18 |  | 2.9 | 15.5 | 1.82 | 16.4 | 3.11 | 1.27 | 1.5 | 1.28 | 1.82
20 | O=C(O)c1cc(=O)c2c([nH]c3ccccc32)s1 | > 100 | > 100 | > 100 | > 100 | > 100 | > 100 | > 100 | > 100 | > 100 |  |  |  |  |  |  |  |  |  |  | 

Reference: PubChem BioAssay (NCI)
